Values joined by “and” are separate entries in the source; they are usually repeats but may differ in a detail not shown here. Identical values can stand only once.
Tested on: WiDr human colorectal adenocarcinoma
Experiment: WiDr xenograft model: growth of established WiDr human colorectal tumors in athymic nude mice (tumor volume/weight, % T/C, Fa, Combination Index)
Conditions: for Fractional Inhibition of Tumor Volume (Fa), Ave. / Tumor Volume, Ave.: group average; for Volume Decrease: vs control
[1] = Gem 12.5 mg/kg, day 28, one line per animal, listed as Gem
[2] = Gem 25 mg/kg, day 28, one line per animal, listed as Gem
[3] = Gem 50 mg/kg, day 28, one line per animal, listed as Gem
[4] = Day 34, individual animals, hCBE 50
[5] = Day 34, individual animals, hCBE 500
[6] = hCBE 50 μg, day 28, one line per animal
[7] = hCBE 100 μg, day 28, one line per animal
[8] = huCBE11 50 μg, day 21, listed as hCBE

Nc1ccn([C@@H]2O[C@H](CO)[C@@H](O)C2(F)F)c(=O)n1 [Gemcitabine, gemcitabine, reference compound]
Fractional Inhibition of Tumor Volume (Fa), Ave. (Gem 12.5 mg/kg, day 28): 0.403 | Tumor Volume, Ave. (Gem 12.5 mg/kg, day 28): 479.5 | Individual Fractional Inhibition of Tumor Volume (Fa) [1]: 0.571 and 0.001 and 0.524 and 0.490 and 0.427 and 0.479 and 0.421 and 0.632 and −0.058 and 0.543 | Individual Tumor Volumes [1]: 344.8 and 802.2 and 382.6 and 409.5 and 459.9 and 418.6 and 465.3 and 295.5 and 849.7 and 367.1 | Fractional Inhibition of Tumor Volume (Fa), Ave. (Gem 25 mg/kg, day 28): 0.603 | Tumor Volume, Ave. (Gem 25 mg/kg, day 28): 319.0 | Individual Fractional Inhibition of Tumor Volume (Fa) [2]: 0.678 and 0.561 and 0.657 and 0.440 and 0.505 and 0.574 and 0.712 and 0.703 and 0.559 and 0.641 | Individual Tumor Volumes [2]: 258.5 and 352.8 and 275.7 and 450.0 and 397.8 and 342.6 and 230.9 and 238.8 and 354.3 and 288.2 | Fractional Inhibition of Tumor Volume (Fa), Ave. (Gem 50 mg/kg, day 28): 0.594 | Tumor Volume, Ave. (Gem 50 mg/kg, day 28): 326.0 | Individual Fractional Inhibition of Tumor Volume (Fa) [3]: 0.602 and 0.812 and 0.747 and 0.502 and 0.445 and 0.538 and 0.447 and 0.774 and 0.659 and 0.417 | Individual Tumor Volumes [3]: 319.6 and 151.2 and 203.1 and 400.1 and 446.1 and 370.9 and 444.1 and 181.8 and 274.1 and 468.6 | Fraction Affected (Gemcitabine 12.5 mg/kg given separately, day 28): 0.403 | Tumor Volume (Gemcitabine 12.5 mg/kg, day 28): 479.5 | Volume Decrease (Gemcitabine 12.5 mg/kg, day 28): 323.7 | Fraction Affected (Gemcitabine 25 mg/kg given separately, day 28): 0.603 | Tumor Volume (Gemcitabine 25 mg/kg, day 28): 318.9 | Volume Decrease (Gemcitabine 25 mg/kg, day 28): 484.3 | Tumor Volume (Gemcitabine 50 mg/kg, day 28): 326.0 | Volume Decrease (Gemcitabine 50 mg/kg, day 28): 477.2 | Median Effect Dose (Gemcitabine combined with huCBE11 (0.568:1), day 28): 4.2 mg/kg | Median Effect Dose (Gemcitabine given separately, day 28): 16.7 mg/kg | Inhibition of tumor growth vs vehicle control (gemcitabine 12.5 mg/kg, Day 41, separate study): No significant inhibition | % T/C (gemcitabine 25 mg/kg, Days 21 and 28): below 42% | Activity by NCI criteria (% T/C of 42 or less) (gemcitabine 50 mg/kg to […], Day 41): inactive | % T/C (gemcitabine 50 mg/kg, Days 17 to 28): below 42%

huCBE11: humanized anti-LT-β-R agonist antibody (LTβ receptor-activating mAb), described in WO 02/30986
Fa (Fraction Affected) (Day 34, huCBE11 5 ug): 0.256 | Tumor Volume (Day 34, huCBE11 5 ug): 1024.0 | Volume Decrease (Day 34, huCBE11 5 ug): 352.4 | Fa (Fraction Affected) (Day 34, huCBE11 50 ug): 0.361 | Tumor Volume (Day 34, huCBE11 50 ug): 880.1 | Volume Decrease (Day 34, huCBE11 50 ug): 496.3 | Fa (Fraction Affected) (Day 34, huCBE11 500 ug): 0.466 | Tumor Volume (Day 34, huCBE11 500 ug): 735.6 | Volume Decrease (Day 34, huCBE11 500 ug): 640.8 | Median Effect Dose (Day 34, huCBE11 Given Separately): 932.9 µg | Median Effect Dose (Day 34, huCBE11 dose, Combined (0.333:1) with Taxol): 19.8 µg | Individual Fractional Inhibition of Tumor Volume [4]: 0.039 and 0.536 and 0.420 and 0.452 and 0.391 and 0.290 and 0.423 and 0.674 and −0.234 and 0.614 | Individual Tumor Volumes [4]: 1322.2 and 638.5 and 798.8 and 754.3 and 838.2 and 976.8 and 794.0 and 448.6 and 1698.4 and 531.6 | Individual Fractional Inhibition of Tumor Volume [5]: 0.174 and 0.360 and 0.502 and 0.529 and 0.688 and 0.717 and 0.395 and 0.607 and 0.230 and 0.454 | Individual Tumor Volumes [5]: 1136.7 and 881.2 and 685.7 and 648.1 and 430.1 and 389.8 and 832.1 and 541.3 and 1059.8 and 751.2 | Tumor weight vs vehicle control (all huCBE11 groups (500, 100, 50 μg), day 42): statistically significantly lower | Fractional Inhibition of Tumor Volume (Fa), Ave. (hCBE 50 μg, day 28): 0.442 | Tumor Volume, Ave. (hCBE 50 μg, day 28): 448.0 | Individual Fractional Inhibition of Tumor Volume (Fa) [6]: 0.467 and 0.547 and 0.564 and 0.463 and 0.456 and 0.350 and −0.060 and 0.245 and 0.827 and 0.562 | Individual Tumor Volumes [6]: 428.2 and 363.5 and 350.4 and 431.3 and 437.1 and 521.8 and 851.1 and 606.1 and 138.7 and 352.2 | Fractional Inhibition of Tumor Volume (Fa), Ave. (hCBE 100 μg, day 28): 0.519 | Tumor Volume, Ave. (hCBE 100 μg, day 28): 386.1 | Individual Fractional Inhibition of Tumor Volume (Fa) [7]: 0.754 and −0.210 and 0.441 and 0.590 and 0.596 and 0.449 and 0.682 and 0.556 and 0.723 and 0.614 | Individual Tumor Volumes [7]: 197.9 and 972.2 and 449.1 and 329.2 and 324.7 and 442.5 and 255.6 and 356.8 and 222.4 and 310.4 | Fa (Fraction Affected), group mean (huCBE11 5 μg, day 21): 0.265 | Tumor Volume, group mean (huCBE11 5 μg, day 21): 319.0 | Volume Decrease vs control, group mean (huCBE11 5 μg, day 21): 115.0 | Fa (huCBE11 5 μg, day 28): 0.143 | Tumor Volume (huCBE11 5 μg, day 28): 688.4 | Volume Decrease (huCBE11 5 μg, day 28): 114.8 | Inhibition of tumor growth (huCBE11 5 μg, gemcitabine parallel study): did not significantly inhibit tumor growth | Fraction Affected (huCBE11 50 μg given separately, day 28): 0.442 | % T/C (huCBE11 50 μg, Day 41): 43.5% | Fa (Fraction Affected), group mean (huCBE11 50 μg, day 21): 0.383 | Tumor Volume, group mean (huCBE11 50 μg, day 21): 267.8 | Volume Decrease vs control, group mean (huCBE11 50 μg, day 21): 166.2 | Fa, individual animals [8]: 0.607 and 0.437 and 0.466 and 0.590 and 0.298 and 0.605 and 0.179 and −0.015 and 0.415 and 0.247 | Tumor volume, individual animals [8]: 170.5 and 244.3 and 231.8 and 178.1 and 304.5 and 171.3 and 356.5 and 440.3 and 254.0 and 326.6 | Tumor Volume (huCBE11 50 μg, day 28): 448.0 | Volume Decrease (huCBE11 50 μg, day 28): 355.2 | Fa (fractional inhibition of tumor volume), group mean (huCBE11 50 μg, day 35): 0.437 | Fa, individual animals (huCBE11 50 μg, day 35): 0.723 and 0.666 and 0.660 and 0.636 and 0.318 and −0.502 and 0.321 and 0.473 and 0.743 and 0.329 | Tumor Volume, group mean (huCBE11 50 μg, day 35): 633.2 | Tumor volume, individual animals (huCBE11 50 μg, day 35): 311.9 and 375.4 and 381.9 and 409.6 and 766.4 and 1688.6 and 762.8 and 592.2 and 289.2 and 754.4 | Volume Decrease vs control, group mean (huCBE11 50 μg, day 35): 490.8 | Fa (fractional inhibition of tumor volume), group mean (huCBE11 50 μg, day 44): 0.387 | Fa, individual animals (huCBE11 50 μg, day 44): 0.656 and 0.434 and 0.559 and 0.498 and 0.143 and 0.591 and −0.316 and 0.381 and 0.406 and 0.516 | Tumor Volume, group mean (huCBE11 50 μg, day 44): 869.7 | Tumor volume, individual animals (huCBE11 50 μg, day 44): 487.5 and 802.7 and 624.9 and 712.0 and 1216.2 and 580.7 and 1866.3 and 878.7 and 842.6 and 686.0 | Volume Decrease vs control, group mean (huCBE11 50 μg, day 44): 548.9 | Fraction Affected (huCBE11 100 μg given separately, day 28): 0.519 | % T/C (huCBE11 100 μg, Day 41): 40.0% | Tumor Volume (huCBE11 100 μg, day 28): 386.1 | Volume Decrease (huCBE11 100 μg, day 28): 417.1 | Fa (fractional inhibition of tumor volume), group mean (huCBE11 100 μg, day 35): 0.645 | Fa, individual animals (huCBE11 100 μg, day 35): 0.762 and 0.814 and 0.781 and 0.739 and 0.750 and 0.344 and 0.593 and 0.696 and 0.119 and 0.848 | Tumor Volume, group mean (huCBE11 100 μg, day 35): 399.5 | Tumor volume, individual animals (huCBE11 100 μg, day 35): 267.9 and 208.9 and 245.8 and 293.4 and 281.4 and 737.5 and 457.4 and 341.5 and 990.1 and 171.4 | Volume Decrease vs control, group mean (huCBE11 100 μg, day 35): 724.5 | Activity by NCI criteria (% T/C of 42 or less) (huCBE11 100 μg, gemcitabine parallel study): active | % T/C (huCBE11 500 μg and 50 μg groups, days 35 or 38 to 42): < 42% | % T/C (huCBE11 500 μg and 100 μg groups, days 32 to 42): < 42% | Activity by NCI criteria (huCBE11 500 μg, 100 μg, 50 μg, adriamycin parallel study): active | % T/C (huCBE11 500 μg, Days 31 to 45): below 42% | Fa (Fraction Affected), group mean (huCBE11 500 μg, day 21): 0.418 | Tumor Volume, group mean (huCBE11 500 μg, day 21): 252.5 | Volume Decrease vs control, group mean (huCBE11 500 μg, day 21): 181.5 | Fa (fractional inhibition of tumor volume), group mean (huCBE11 500 μg, day 35): 0.648 | Fa, individual animals (huCBE11 500 μg, day 35): 1.000 and 0.750 and 0.305 and 0.758 and 0.522 and 0.756 and 0.672 and 0.670 and 0.307 and 0.736 | Tumor Volume, group mean (huCBE11 500 μg, day 35): 396.0 | Tumor volume, individual animals (huCBE11 500 μg, day 35): 0.1 and 280.9 and 781.0 and 272.3 and 537.5 and 273.7 and 368.7 and 370.6 and 778.7 and 296.8 | Volume Decrease vs control, group mean (huCBE11 500 μg, day 35): 728.0 | Fa (fractional inhibition of tumor volume), group mean (huCBE11 500 μg, day 44): 0.567 | Fa, individual animals (huCBE11 500 μg, day 44): 0.930 and 0.334 and 0.624 and 0.765 and 0.669 and 0.538 and 0.285 and 0.489 and 0.488 and 0.545 | Tumor Volume, group mean (huCBE11 500 μg, day 44): 614.7 | Tumor volume, individual animals (huCBE11 500 μg, day 44): 99.1 and 944.8 and 534.1 and 333.2 and 469.4 and 655.8 and 1014.0 and 725.3 and 726.2 and 645.6 | Volume Decrease vs control, group mean (huCBE11 500 μg, day 44): 803.9 | Activity by NCI criteria (% T/C of 42 or less) (huCBE11, Camptosar parallel study): active | Median Effect Dose (huCBE11 combined with Camptosar (0.555:1), day 21): 10.2 µg | Median Effect Dose (huCBE11 combined with Gemcitabine (0.568:1), day 28): 7.3 µg | Median Effect Dose (huCBE11 given separately, day 21): 2933 µg | Median Effect Dose (huCBE11 given separately, day 28): 81.1 µg
